According to the supplement of paper PMC10307832:

Columns and labels:
Test in all cases: relative viability (nuclei count vs DMSO), 5 days (fraction); higher = more cells survive
[1] = compound: C1=CC2=C(C=C(C(=C2N=C1)O)N=NC3=CC4=C(C=C3)C=C(C=C4)S(=O)(=O)O)S(=O)(=O)O
Summary of the method: (§1)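 Following overnight incubation at 37 °C, lung cancer cell lines in 1536-well plates were pinned with five library-drug doses (not always all listed) in √10 steps on vehicle-anchored plates. The cells then spent 5 days without medium change before a combined fix, permeabilisation and Hoechst stain, 4× imaging and MetaXpress nuclear counts. Viability is the treated-to-vehicle ratio of nuclei, taken as the median across plates. Only plates with control CV below 25% and at least one doubling passed.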

AT-7519 = compound: O=C(NC1CCNCC1)c1n[nH]cc1NC(=O)c1c(Cl)cccc1Cl [AT-7519]
Summary of the method: as §1

[2] = compound: C1=CC2=C(C=C(C(=C2N=C1)O)N=NC3=CC4=C(C=C3)C=C(C=C4)S(=O)(=O)O)S(=O)(=O)O + CCNC(=O)c1noc(-c2cc(C(C)C)c(O)cc2O)c1-c1ccc(CN2CCOCC2)cc1 [Luminespib] (partner 0.01 µM)
Summary of the method: (§2)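 For relative viability, nuclei counts in treated wells were divided by those in vehicle wells. Lung cancer cell lines had been pin-tool dosed in 1536-well plates the day after seeding and cultured for 5 days, then fixed and stained in one step (final 0.05% Triton X-100, 1% formaldehyde, 1 ug/ml Hoechst) and imaged at 4×. Doses were one drug alone or a fixed anchor-drug dose plus five library-drug doses (not always all listed) in √10 steps, and values are duplicate-plate medians.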

[3] = compound: C1=CC2=C(C=C(C(=C2N=C1)O)N=NC3=CC4=C(C=C3)C=C(C=C4)S(=O)(=O)O)S(=O)(=O)O + COc1cc2c(Oc3ccc(NC(=O)C4(C(=O)Nc5ccc(F)cc5)CC4)cc3F)ccnc2cc1OCCCN1CCOCC1 [Foretinib] (partner 0.25 µM)
Summary of the method: as §2

[4] = compound: C1=CC2=C(C=C(C(=C2N=C1)O)N=NC3=CC4=C(C=C3)C=C(C=C4)S(=O)(=O)O)S(=O)(=O)O + COc1cccc2cc(-c3nc([C@H]4CC[C@H](C(=O)O)CC4)n4ncnc(N)c34)[nH]c12 [OSI-027] (partner 0.5 µM)
Summary of the method: as §2

[5] = compound: C1=CC2=C(C=C(C(=C2N=C1)O)N=NC3=CC4=C(C=C3)C=C(C=C4)S(=O)(=O)O)S(=O)(=O)O + Cc1cc(Nc2cc(N3CCN(C)CC3)nc(Sc3ccc(NC(=O)C4CC4)cc3)n2)n[nH]1 [Tozasertib] (partner 0.1 µM)
Summary of the method: as §2

[6] = compound: C1=CC2=C(C=C(C(=C2N=C1)O)N=NC3=CC4=C(C=C3)C=C(C=C4)S(=O)(=O)O)S(=O)(=O)O + Cc1nc(Nc2ncc(C(=O)Nc3c(C)cccc3Cl)s2)cc(N2CCN(CCO)CC2)n1 [Dasatinib] (partner 0.075 µM)
Summary of the method: as §2

[7] = compound: C1=CC2=C(C=C(C(=C2N=C1)O)N=NC3=CC4=C(C=C3)C=C(C=C4)S(=O)(=O)O)S(=O)(=O)O + N=C(N)NC(=N)NCCc1ccccc1 [Phenformin] (partner 250 µM)
Summary of the method: as §2

AT-7519 + Luminespib = compound: O=C(NC1CCNCC1)c1n[nH]cc1NC(=O)c1c(Cl)cccc1Cl [AT-7519] + CCNC(=O)c1noc(-c2cc(C(C)C)c(O)cc2O)c1-c1ccc(CN2CCOCC2)cc1 [Luminespib] (partner 0.01 µM)
Summary of the method: as §2

AT-7519 + Foretinib = compound: O=C(NC1CCNCC1)c1n[nH]cc1NC(=O)c1c(Cl)cccc1Cl [AT-7519] + COc1cc2c(Oc3ccc(NC(=O)C4(C(=O)Nc5ccc(F)cc5)CC4)cc3F)ccnc2cc1OCCCN1CCOCC1 [Foretinib] (partner 0.25 µM)
Summary of the method: as §2

AT-7519 + OSI-027 = compound: O=C(NC1CCNCC1)c1n[nH]cc1NC(=O)c1c(Cl)cccc1Cl [AT-7519] + COc1cccc2cc(-c3nc([C@H]4CC[C@H](C(=O)O)CC4)n4ncnc(N)c34)[nH]c12 [OSI-027] (partner 0.5 µM)
Summary of the method: as §2

AT-7519 + Tozasertib = compound: O=C(NC1CCNCC1)c1n[nH]cc1NC(=O)c1c(Cl)cccc1Cl [AT-7519] + Cc1cc(Nc2cc(N3CCN(C)CC3)nc(Sc3ccc(NC(=O)C4CC4)cc3)n2)n[nH]1 [Tozasertib] (partner 0.1 µM)
Summary of the method: as §2

AT-7519 + Dasatinib = compound: O=C(NC1CCNCC1)c1n[nH]cc1NC(=O)c1c(Cl)cccc1Cl [AT-7519] + Cc1nc(Nc2ncc(C(=O)Nc3c(C)cccc3Cl)s2)cc(N2CCN(CCO)CC2)n1 [Dasatinib] (partner 0.075 µM)
Summary of the method: as §2

AT-7519 + Phenformin = compound: O=C(NC1CCNCC1)c1n[nH]cc1NC(=O)c1c(Cl)cccc1Cl [AT-7519] + N=C(N)NC(=N)NCCc1ccccc1 [Phenformin] (partner 250 µM)
Summary of the method: as §2

NCI-H1623
relative viability ([1]; 0.08 µM): 0.925 | relative viability ([1]; 0.253 µM): 0.995 | relative viability ([1]; 0.8 µM): 0.953 | relative viability ([1]; 2.53 µM): 1.06 | relative viability ([1]; 8 µM): 0.852 | relative viability (AT-7519; 0.01 µM): 0.982 | relative viability (AT-7519; 0.03162 µM): 0.934 | relative viability (AT-7519; 0.3162 µM): 1.05 | relative viability (AT-7519; 1 µM): 0.773 | relative viability ([2]; first compound 0.08 µM): 0.747 | relative viability ([2]; first compound 0.253 µM): 0.471 | relative viability ([2]; first compound 0.8 µM): 0.471 | relative viability ([2]; first compound 2.53 µM): 0.503 | relative viability ([2]; first compound 8 µM): 0.559 | relative viability ([3]; first compound 0.08 µM): 0.845 | relative viability ([3]; first compound 0.253 µM): 0.874 | relative viability ([3]; first compound 0.8 µM): 0.854 | relative viability ([3]; first compound 2.53 µM): 0.832 | relative viability ([3]; first compound 8 µM): 0.6 | relative viability ([4]; first compound 0.08 µM): 0.466 | relative viability ([4]; first compound 0.253 µM): 0.391 | relative viability ([4]; first compound 0.8 µM): 0.419 | relative viability ([4]; first compound 2.53 µM): 0.468 | relative viability ([4]; first compound 8 µM): 0.438 | relative viability ([5]; first compound 0.08 µM): 0.432 | relative viability ([5]; first compound 0.253 µM): 0.416 | relative viability ([5]; first compound 0.8 µM): 0.458 | relative viability ([5]; first compound 2.53 µM): 0.506 | relative viability ([5]; first compound 8 µM): 0.428 | relative viability ([6]; first compound 0.08 µM): 0.465 | relative viability ([6]; first compound 0.253 µM): 0.519 | relative viability ([6]; first compound 0.8 µM): 0.575 | relative viability ([6]; first compound 2.53 µM): 0.547 | relative viability ([6]; first compound 8 µM): 0.251 | relative viability ([7]; first compound 0.08 µM): 0.565 | relative viability ([7]; first compound 0.253 µM): 0.541 | relative viability ([7]; first compound 0.8 µM): 0.609 | relative viability ([7]; first compound 2.53 µM): 0.589 | relative viability ([7]; first compound 8 µM): 0.278 | relative viability (AT-7519 + Luminespib; first compound 0.01 µM): 0.534 | relative viability (AT-7519 + Luminespib; first compound 0.03162 µM): 0.449 | relative viability (AT-7519 + Luminespib; first compound 0.3162 µM): 0.397 | relative viability (AT-7519 + Luminespib; first compound 1 µM): 0.307 | relative viability (AT-7519 + Foretinib; first compound 0.01 µM): 0.86 | relative viability (AT-7519 + Foretinib; first compound 0.03162 µM): 0.834 | relative viability (AT-7519 + Foretinib; first compound 0.3162 µM): 0.997 | relative viability (AT-7519 + Foretinib; first compound 1 µM): 0.711 | relative viability (AT-7519 + OSI-027; first compound 0.01 µM): 0.529 | relative viability (AT-7519 + OSI-027; first compound 0.03162 µM): 0.424 | relative viability (AT-7519 + OSI-027; first compound 0.3162 µM): 0.432 | relative viability (AT-7519 + OSI-027; first compound 1 µM): 0.362 | relative viability (AT-7519 + Tozasertib; first compound 0.01 µM): 0.378 | relative viability (AT-7519 + Tozasertib; first compound 0.03162 µM): 0.401 | relative viability (AT-7519 + Tozasertib; first compound 0.3162 µM): 0.518 | relative viability (AT-7519 + Tozasertib; first compound 1 µM): 0.393 | relative viability (AT-7519 + Dasatinib; first compound 0.01 µM): 0.58 | relative viability (AT-7519 + Dasatinib; first compound 0.03162 µM): 0.646 | relative viability (AT-7519 + Dasatinib; first compound 0.3162 µM): 0.63 | relative viability (AT-7519 + Dasatinib; first compound 1 µM): 0.604 | relative viability (AT-7519 + Phenformin; first compound 0.01 µM): 0.583 | relative viability (AT-7519 + Phenformin; first compound 0.03162 µM): 0.567 | relative viability (AT-7519 + Phenformin; first compound 0.3162 µM): 0.668 | relative viability (AT-7519 + Phenformin; first compound 1 µM): 0.557
